Experimental data as given in BindingDB's records for PubMed 15173008 (Wyeth Research).

Test: Inhibition of recombinant PDK1 (unknown origin) using peptide as substrate

Compound `COc1cc2ncc(C#N)c(Nc3ccc(OCc4ccccn4)c(Cl)c3)c2cc1NC(=O)/C=C/CN(C)C` has an IC50 of over 5 µM.
